Data set [1] is described as follows: in vitro. The conditions noted are these: for % Remain. Mean: mouse plasma, 1 μM, 37° C. How it is done: Plasma stability is defined as the percentage of parent compound remaining in plasma over the time.
Incubations were carried out in 5 aliquots of 70 μL each (one for each time point), in duplicates. Test compounds (1 μM, final DMSO concentration 1%) were incubated at 37° C. with shaking at 100 rpm. Five time points over 120 minutes have been analyzed. The reactions were stopped by adding 420 μL of acetonitrile-water mixture (90:10) with subsequent plasma proteins sedimentation by centrifuging at 5500 rpm for 5 minutes. Supernatants were analyzed by the HPLC system coupled with tandem mass spectrometer. The percentage of the test compounds remaining after incubation in plasma and their half-lives (T1/2) were calculated.

Data set [2] has as its system ChikV. The data set is described as follows: IC50 in established virological assays (Table 1), ChikV. The class given is cell-based. As to conditions: Chikungunya virus.
The target in data set [3] is HCV core protein (Hepatitis C virus genotype 1a, UniProt P27958). The data set is described as follows: Interaction with and crosslinking of HCV core protein (Western blot). As to conditions: purified core protein. (In general: In western blotting, separated proteins are transferred to a membrane and probed.)
HCV core protein, sequence (P27958 1-117): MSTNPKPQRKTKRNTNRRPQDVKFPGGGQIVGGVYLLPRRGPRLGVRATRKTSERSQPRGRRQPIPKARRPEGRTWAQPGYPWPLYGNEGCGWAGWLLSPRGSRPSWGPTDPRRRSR
The test system of data set [4] is HCV. The data set is described as follows: IC50 in established virological assays (Table 1), HCV. The class given is cell-based, Hepatitis C virus. On the procedure: In summary, a set of C10 derivatives (FIG. 12) was designed, synthesized and tested against HCV (which is considered as an established system to monitor drug effects against Flaviviridae) as well as DENV for comprehensive structure-activity relationship (SAR) analysis and target validation. IC50 and CC50 values for compound C10 were determined in established virological assays (Table 1). […] Further, said experiments underline the specificity of compound C10 for flaviviruses.

The structures appear in SMILES notation. “Also recorded” adds a separate entry of the source. Read-outs that look alike come from different tables or passages of the source.

What is called half-life is the time in which the quantity being followed falls by half. Low readings indicate fast loss, high ones slow loss. By IC50 is commonly meant the concentration at which inhibition is half-maximal. High values mean weaker potency in that assay, low ones greater potency in that assay.

Take `CCN1/C(=C\C=C\c2sc3cc(NC(C)=O)ccc3[n+]2CC)Sc2cc(NC(C)=O)ccc21.[I-]` [C10, 6-acetamido-2-((1E,3E)-3-(6-acetamido-3-ethylbenzo[d]thiazol-2(3H)-ylidene)prop-1-en-1-yl)-3-ethylbenzo[d]thiazol-3-ium iodide]: the “% Remain. Mean” value in data set [1] (0 min) is 100%; in data set [1] (20 min) it was 93%; in data set [1] (40 min), 90%; in data set [1] (60 min) it was 82%; in data set [1] (120 min) it was 57%. This molecule came in with a half-life at 1 μM in data set [1] (mouse, plasma) of 3.68 h. Besides, the “stability in mouse plasma” value in data set [1] (mouse, plasma) was “good stability”. The concentration for half-maximal inhibition (IC50) was 5600 nM in data set [2], 180 nM in data set [4] and roughly 200 nM in data set [4] (Hepatitis C virus). The “cross-linking / oligomerization of HCV core protein” value in data set [3] is listed as “leads to cross-linking of the core protein; also recorded: triggers the oligomerization of HCV core protein”.

These data come from patent US12527773B2, “Flavi-block: a pan-flavivirus inhibitor” (Baden-Württemberg Stiftung GmbH, priority 2020, dated 2026).
